Converted amounts (≈) assume the structure as drawn. Where two headings read alike, the source gives them in different places.
Key:
[1] = Microsomal stability assay, mouse; type: in vitro ADME; details: mouse liver microsomes
Method: (§1) Mouse and human liver microsomes were thawed slowly on ice. A total of 5 mg/mL of microsomes, 2 μL of a 100 μM solution of EDT and 183 μL of 100 mM phosphate buffer were incubated 5 min at 37 °C in a water bath. Reactions were initiated using 10 μL of 20 mM NADPH. Samples were incubated in three replicates at 37 °C under gentle agitation at 150 rpm. At 0, 5, 15, 30, and 60 min, reactions were terminated by the addition of 180 μL of acetonitrile. After centrifugation (4000 rpm, 10 min), samples were then analyzed by liquid chromatography/tandem mass spectrometry (LC–MS/MS). Peak areas of the respective time point of the compound were normalized to the peak area at time point 0 min. Then half-life was calculated using linear regression from log percentage (t1/2 = − 0.693/k).

[2] = tested on: Salmonella Typhimurium TA97a; experiment: Ames test, TA97a
Method: (§2) Before the test, Salmonella Typhimurium (S. Typhimurium) TA97a, TA98, TA100, TA102, TA1535 and Escherichia coli WP2uvrA pKM101 (pKM101) were first checked for their genetic integrity, including biotin dependence, rfa marker (crystal violet), biotin, histidine dependence and presence of the plasmid pKM101 (ampicillin resistance) or pAQ1 (tetracycline resistance). […] The maximum concentration of EDT was also screened using a preliminary experiment.
(§3) DMSO (0.1 mL) was directly incorporated into 1.9 mL melted top agar as the vehicle control. […] Each strain (0.1 mL, 6–7 log10 CFU/mL) was added into 2 mL of top agar in which comprised 0.5 mL S9 (10%), serial concentrations of EDT (2000, 400, 80, 16 and 3.2 μg/plate), DMSO or control chemicals for testing with the S9. For testing without S9, 0.5 mL phosphate buffer saline (PBS, pH 7.4) replaced the S9 mix. Then, the obtained top agar was melted, poured onto the surface of […] and swirled to distribute the top agar to all surfaces of medium, followed by incubation at 37 °C for 48 h. The resultant colonies were counted manually as the number of revertant colonies per plate. The experiments were performed in triplicate and the results were expressed as the average ± SD.

[3] = Microsomal stability assay, human; type: in vitro ADME; details: human liver microsomes
Method: as §1

[4] = tested on: S. Typhimurium TA97a, TA98, TA100, TA102, TA1535 and Escherichia coli WP2uvrA pKM101; experiment: Ames test, all tested strains (overall result and preliminary dose finding); type: cell-based, Salmonella Typhimurium; Escherichia coli
Method: as §2, §3

MRSA-337371 = experiment: microbe, parasite or virus in culture; type: cell-based, methicillin-resistant Staphylococcus aureus; details: for MIC: Staphylococcus aureus, MRSA
Method: We performed resistance induction tests on EDT and tiamulin which was used as a referent drug. […] Finally, MRSA was cultured for 30 generations with the same procedure. At the 31st generation, drugs were removed until 40th generation and MICs were determined in each generation.

[5] = tested on: Salmonella Typhimurium TA102; experiment: Ames test, TA102
Method: as §2, §3

For `C=CC1(C)CC(OC(=O)CSc2nc(C)c(C(=O)OCC)c(C)n2)C2(C)C(C)CCC3(CCC(=O)C32)C(C)C1O` (centres unmarked) [EDT, 14-O-[(5-ethoxycarbonyl-4,6-dimethylpyrimidine-2-yl)thioacetyl] mutilin], the half-life at 1 μM [1] was 30.1 min, the microsomal CLint at 1 μM [1] was 46 µL/min/mg and the “number of revertant colonies per plate” value ([2]; 3.2 μg/plate, +S9) was 57.67 ± 4.33. For the same compound, the “number of revertant colonies per plate” value ([2]; 3.2 μg/plate, −S9) was 52.00 ± 3.00, the “number of revertant colonies per plate” value ([2]; 16 μg/plate, +S9) was 46.00 ± 4.00 and the “number of revertant colonies per plate” value ([2]; 16 μg/plate, −S9) was 44.33 ± 5.67. For the same compound, the “number of revertant colonies per plate” value ([2]; 80 μg/plate, +S9) was 50.33 ± 3.67, the “number of revertant colonies per plate” value ([2]; 80 μg/plate, −S9) was 53.33 ± 5.67 and the “number of revertant colonies per plate” value ([2]; 400 μg/plate, +S9) was 54.33 ± 4.67. For the same compound, the “number of revertant colonies per plate” value ([2]; 400 μg/plate, −S9) was 56.00 ± 3.00, the “number of revertant colonies per plate” value ([2]; 2000 μg/plate, +S9) was 44.00 ± 5.00 and the “number of revertant colonies per plate” value ([2]; 2000 μg/plate, −S9) was 52.00 ± 6.00. The half-life at 1 μM [3] was 43.6 min, the microsomal CLint at 1 μM [3] was 31.8 µL/min/mg and the “toxicity to the test strains, preliminary experiment” value ([4]; 2000 μg/plate) was “not toxic”. For the same compound, the “toxicity to the test strains, preliminary experiment” value ([4]; 5000 μg/plate) was “inhibited the test strains”, the “number of revertant colonies compared with the vehicle control” value ([4]; 3.2-2000 μg/plate, −S9 and +S9, all strains) was “no significantly different” and the “increase of MIC” value (MRSA-337371; 30 generations under the subinhibitory concentration (1/4 MIC)) was “fourfold”. The MIC (MRSA-337371; 24 h, read-out: MIC in the resistance development study, day 1) was 0.0313 µg/mL (≈ 0.0546 µM), the MIC (MRSA-337371; 48 h, read-out: MIC in the resistance development study, day 2) was 0.0313 µg/mL (≈ 0.0546 µM) and the MIC (MRSA-337371; 72 h, read-out: MIC in the resistance development study, day 3) was 0.0313 µg/mL (≈ 0.0546 µM). It also gave an MIC (MRSA-337371; 96 h, read-out: MIC in the resistance development study, day 4) of 0.0313 µg/mL (≈ 0.0546 µM), an MIC (MRSA-337371; 120 h, read-out: MIC in the resistance development study, day 5) of 0.0313 µg/mL (≈ 0.0546 µM) and an MIC (MRSA-337371; 144 h, read-out: MIC in the resistance development study, day 6) of 0.0313 µg/mL (≈ 0.0546 µM). It also gave an MIC (MRSA-337371; 168 h, read-out: MIC in the resistance development study, day 7) of 0.0313 µg/mL (≈ 0.0546 µM), an MIC (MRSA-337371; 192 h, read-out: MIC in the resistance development study, day 8) of 0.0313 µg/mL (≈ 0.0546 µM) and an MIC (MRSA-337371; 216 h, read-out: MIC in the resistance development study, day 9) of 0.0313 µg/mL (≈ 0.0546 µM). It also gave an MIC (MRSA-337371; 240 h, read-out: MIC in the resistance development study, day 10) of 0.0313 µg/mL (≈ 0.0546 µM), an MIC (MRSA-337371; 264 h, read-out: MIC in the resistance development study, day 11) of 0.0313 µg/mL (≈ 0.0546 µM) and an MIC (MRSA-337371; 288 h, read-out: MIC in the resistance development study, day 12) of 0.0625 µg/mL (≈ 0.109 µM). The MIC (MRSA-337371; 312 h, read-out: MIC in the resistance development study, day 13) was 0.0625 µg/mL (≈ 0.109 µM), the MIC (MRSA-337371; 336 h, read-out: MIC in the resistance development study, day 14) was 0.0313 µg/mL (≈ 0.0546 µM) and the MIC (MRSA-337371; 360 h, read-out: MIC in the resistance development study, day 15) was 0.0313 µg/mL (≈ 0.0546 µM). It also gave an MIC (MRSA-337371; 384 h, read-out: MIC in the resistance development study, day 16) of 0.0313 µg/mL (≈ 0.0546 µM), an MIC (MRSA-337371; 408 h, read-out: MIC in the resistance development study, day 17) of 0.0625 µg/mL (≈ 0.109 µM) and an MIC (MRSA-337371; 432 h, read-out: MIC in the resistance development study, day 18) of 0.0625 µg/mL (≈ 0.109 µM). The MIC (MRSA-337371; 456 h, read-out: MIC in the resistance development study, day 19) was 0.0625 µg/mL (≈ 0.109 µM), the MIC (MRSA-337371; 480 h, read-out: MIC in the resistance development study, day 20) was 0.125 µg/mL (≈ 0.218 µM) and the MIC (MRSA-337371; 504 h, read-out: MIC in the resistance development study, day 21) was 0.125 µg/mL (≈ 0.218 µM). For the same compound, the MIC (MRSA-337371; 528 h, read-out: MIC in the resistance development study, day 22) was 0.125 µg/mL (≈ 0.218 µM), the MIC (MRSA-337371; 552 h, read-out: MIC in the resistance development study, day 23) was 0.125 µg/mL (≈ 0.218 µM) and the MIC (MRSA-337371; 576 h, read-out: MIC in the resistance development study, day 24) was 0.125 µg/mL (≈ 0.218 µM). The MIC (MRSA-337371; 600 h, read-out: MIC in the resistance development study, day 25) was 0.125 µg/mL (≈ 0.218 µM), the MIC (MRSA-337371; 624 h, read-out: MIC in the resistance development study, day 26) was 0.125 µg/mL (≈ 0.218 µM) and the MIC (MRSA-337371; 648 h, read-out: MIC in the resistance development study, day 27) was 0.125 µg/mL (≈ 0.218 µM). For the same compound, the MIC (MRSA-337371; 672 h, read-out: MIC in the resistance development study, day 28) was 0.125 µg/mL (≈ 0.218 µM), the MIC (MRSA-337371; 696 h, read-out: MIC in the resistance development study, day 29) was 0.125 µg/mL (≈ 0.218 µM) and the MIC (MRSA-337371; MRSA-337371, MIC used to set 1×-8× MIC in the PAE test) was 0.0313 µg/mL (≈ 0.0546 µM). The MIC (MRSA-337371; read-out: MIC in the resistance development study, day 30) was 0.125 µg/mL (≈ 0.218 µM), the MIC (MRSA-337371; read-out: MIC in the resistance development study, day 31, drugs removed) was 0.125 µg/mL (≈ 0.218 µM) and the MIC (MRSA-337371; read-out: MIC in the resistance development study, day 32, drugs removed) was 0.125 µg/mL (≈ 0.218 µM). For the same compound, the MIC (MRSA-337371; read-out: MIC in the resistance development study, day 33, drugs removed) was 0.0625 µg/mL (≈ 0.109 µM), the MIC (MRSA-337371; read-out: MIC in the resistance development study, day 34, drugs removed) was 0.0625 µg/mL (≈ 0.109 µM) and the MIC (MRSA-337371; read-out: MIC in the resistance development study, day 35, drugs removed) was 0.0313 µg/mL (≈ 0.0546 µM). The MIC (MRSA-337371; read-out: MIC in the resistance development study, day 36, drugs removed) was 0.0313 µg/mL (≈ 0.0546 µM), the MIC (MRSA-337371; read-out: MIC in the resistance development study, day 37, drugs removed) was 0.0313 µg/mL (≈ 0.0546 µM) and the MIC (MRSA-337371; read-out: MIC in the resistance development study, day 38, drugs removed) was 0.0313 µg/mL (≈ 0.0546 µM). The MIC (MRSA-337371; read-out: MIC in the resistance development study, day 39, drugs removed) was 0.0313 µg/mL (≈ 0.0546 µM), the MIC (MRSA-337371; read-out: MIC in the resistance development study, day 40, drugs removed) was 0.0313 µg/mL (≈ 0.0546 µM) and the “sensitivity of MRSA after removing drugs” value (MRSA-337371; after removing drugs and culturing for additional 10 generations) was “recovered the initial sensitivity”. The “increase in the MIC values” (MRSA-337371; at 22 generations) was “fourfold”, the “number of revertant colonies per plate” value ([5]; TA102, 3.2 μg/plate, +S9) was 214.33 ± 14.67 and the “number of revertant colonies per plate” value ([5]; TA102, 3.2 μg/plate, −S9) was 208.00 ± 15.00. For the same compound, the “number of revertant colonies per plate” value ([5]; TA102, 16 μg/plate, +S9) was 218.00 ± 9.00, the “number of revertant colonies per plate” value ([5]; TA102, 16 μg/plate, −S9) was 205.00 ± 11.00 and the “number of revertant colonies per plate” value ([5]; TA102, 80 μg/plate, +S9) was 223.67 ± 17.33. For the same compound, the “number of revertant colonies per plate” value ([5]; TA102, 80 μg/plate, −S9) was 209.33 ± 13.67, the “number of revertant colonies per plate” value ([5]; TA102, 400 μg/plate, +S9) was 219.67 ± 18.33 and the “number of revertant colonies per plate” value ([5]; TA102, 400 μg/plate, −S9) was 211.00 ± 14.00. For the same compound, the “number of revertant colonies per plate” value ([5]; TA102, 2000 μg/plate, +S9) was 236.33 ± 19.67 and the “number of revertant colonies per plate” value ([5]; TA102, 2000 μg/plate, −S9) was 228.00 ± 16.00.

Source: article PMC10502144, “Anti-methicillin-resistant Staphylococcus aureus activity and safety evaluation of 14-O-[(5-ethoxycarbonyl-4,6-dimethylpyrimidine-2-yl) thioacetyl] mutilin (EDT)” (Scientific Reports, 2023)
